# Reference: patent publication US11541132B2, “Radiolabeled compounds” (Hoffmann-La Roche Inc., priority 2017, dated 2023)
# Experiments:
# [1] = target: T1, native aSyn aggregates in A30P transgenic mouse brain sections (Homo sapiens, UniProt P37840, A30P); experiment: aSyn in vitro displacement assay ([3H]Example-3 autoradiography); format: binding, mutant human aSyn gene); details: 3 nM [3H]Example-3, A30P transgenic mouse brain sections; for inhibition at 1 µM: 1 μM compound, read-out: PCT_INHIB A30P @ 1 μM (% displacement of [3H]Example-3)
# T1 construct: from tissue; host or cells: brain sections (midbrain and pons as ROI) of A30P transgenic mice, line B6.D2-Tg(Thy1-SNCA*30P)31Pjk
# [2] = target: T2, native Aβ aggregates in human AD brain tissue sections (Homo sapiens, UniProt P05067); experiment: Aβ in vitro displacement assay (selectivity counterscreen, [3H]Example 3 autoradiography); format: binding; details: 3 nM [3H]Example 3, human AD brain sections; for inhibition at 1 µM: 1 μM compound, read-out: sel. counterscreen PCT_INHIB AD @ 1 μM (% displacement of [3H]Example 3)
# T2 construct: native Aβ aggregates in human AD brain tissue samples; from tissue; host or cells: human AD brain tissue sections
# T2 sequence (P05067 672-713 limits assumed): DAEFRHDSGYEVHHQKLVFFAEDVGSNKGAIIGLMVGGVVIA
SMILES,inhibition at 1 µM [1] [%],inhibition at 1 µM [2] [%],"inhibition at 3 µM ([1]; 3 μM compound, read-out: PCT_INHIB A30P @ 3 μM) [%]","inhibition at 3 µM ([2]; 3 μM compound, read-out: sel. counterscreen PCT_INHIB AD @ 3 μM) [%]"
"COc1ccc(C(=O)Nc2ccc(N3CCN(c4ccc(C#N)cc4)CC3)cc2)cc1OC [Example 169, N-(4-(4-(4-Cyanophenyl)piperazin-1-yl)phenyl)-3,4-dimethoxybenzamide]",83,82,–,–
"O=C(Nc1ccc(N2CCN(c3ccccn3)CC2)cc1)c1ccc(OCC(O)CF)cc1 (racemic) [Example 125, rac-4-(3-Fluoro-2-hydroxypropoxy)-N-(4-(4-(pyridin-2-yl)piperazin-1-yl)phenyl)benzamide]",82,92,–,–
"COc1ccc(C(=O)Nc2cnc(N3CCN(c4ccc(C#N)cc4)CC3)nc2)cc1 [Example 97, N-(2-(4-(4-Cyanophenyl)piperazin-1-yl)pyrimidin-5-yl)-4-methoxybenzamide]",97,106,–,–
"Cc1ccc(C(=O)Nc2cnc(N3CCN(c4ccccn4)CC3)cn2)cc1 [Example 89, 4-Methyl-N-(5-(4-(pyridin-2-yl)piperazin-1-yl)pyrazin-2-yl)benzamide]",85,88,–,–
"COc1ccc(C(=O)Nc2ccc(N3CCN(c4cccs4)CC3)cc2)cc1 [Example 66, 4-Methoxy-N-{4-[4-(thiophen-2-yl)piperazin-1-yl]phenyl}benzamide]",104,103,–,–
"O=C(Nc1ccc(N2CCN(c3ccccn3)CC2)cc1)c1ccc(N2CCOCC2)cc1 [Example 8, 4-Morpholino-N-(4-(4-(pyridin-2-yl)piperazin-1-yl)phenyl)benzamide]",93,86,–,–
"COc1ccc(C(=O)Nc2ccc(N3CCN(c4ccc(C#N)cc4OC)CC3)cc2)cc1 [Example 139, N-(4-(4-(4-Cyano-2-methoxyphenyl)piperazin-1-yl)phenyl)-4-methoxybenzamide]",94,94,–,–
"COc1ccc(C(=O)Nc2ccc(N3CCN(c4ccccn4)CC3)cc2C)c(F)c1 [Example 29, 2-Fluoro-4-methoxy-N-(2-methyl-4-(4-(pyridin-2-yl)piperazin-1-yl)phenyl)benzamide]",81,83,–,–
"COc1ccc(C(=O)Nc2ccc(N3CCN(c4ccccn4)CC3)nc2)c(F)c1 [Example 34, 2-Fluoro-4-methoxy-N-[6-[4-(2-pyridyl)piperazin-1-yl]-3-pyridyl]benzamide]",84,99,–,–
"COc1ccc(C(=O)Nc2ccc(N3C[C@@H]4CN(c5ccccn5)C[C@H]4C3)cc2)cc1 [Example 133, 4-Methoxy-N-(4-((3aR,6aR)-5-(pyridin-2-yl)hexahydropyrrolo[3,4-c]pyrrol-2(1H)-yl)phenyl)benzamide]",85,84,–,–
"COc1ccc(C(=O)Nc2ccc(N3CCN(c4ccc(S(C)(=O)=O)cc4)CC3)cc2)cc1 [Example 111, 4-Methoxy-N-[4-[4-(4-methylsulfonylphenyl)piperazin-1-yl]phenyl]benzamide]",94,92,–,–
"COc1ccc(C(=O)Nc2cnc(N3CCN(c4ccccn4)CC3)nc2)c(C)c1 [Example 72, 4-Methoxy-2-methyl-N-(2-(4-(pyridin-2-yl)piperazin-1-yl)pyrimidin-5-yl)benzamide]",80,86,–,–
"N#Cc1ccc(N2CCN(c3ccc(NC(=O)c4ccc(N5CCOCC5)cc4)cc3)CC2)cc1 [Example 92, N-(4-(4-(4-Cyanophenyl)piperazin-1-yl)phenyl)-4-morpholinobenzamide]",96,86,–,–
"COc1ccc(C(=O)Nc2cnc(N3CCN(c4ccccn4)CC3)cn2)c(F)c1 [Example 84, 2-Fluoro-4-methoxy-N-(5-(4-(pyridin-2-yl)piperazin-1-yl)pyrazin-2-yl)benzamide]",88,100,–,–
"COc1ccc(C(=O)Nc2ccc(N3CCN(c4ccccn4)CC3)cn2)nc1 [Example 76, 5-Methoxy-N-(5-(4-(pyridin-2-yl)piperazin-1-yl)pyridin-2-yl)picolinamide]",94,91,–,–
"COc1ccc(C(=O)Nc2ccc(N3CCN(c4ccc(C#N)nc4)CC3)cc2)cc1 [Example 154, N-(4-(4-(6-Cyanopyridin-3-yl)piperazin-1-yl)phenyl)-4-methoxybenzamide]",98,96,–,–

SMILES,inhibition at 1 µM [1] [%],inhibition at 1 µM [2] [%],"inhibition at 3 µM ([1]; 3 μM compound, read-out: PCT_INHIB A30P @ 3 μM) [%]","inhibition at 3 µM ([2]; 3 μM compound, read-out: sel. counterscreen PCT_INHIB AD @ 3 μM) [%]"
"COc1ccc(C(=O)Nc2ccc(N3CCN(c4ncncn4)CC3)cc2)cc1 [Example 55, 4-Methoxy-N-{4-[4-(1,3,5-triazin-2-yl)piperazin-1-yl]phenyl}benzamide]",81,95,–,–
"COc1ccc(C(=O)Nc2ccc(N3CCN(c4ccc(C#N)c(OC)c4)CC3)cc2)cc1 [Example 140, N-(4-(4-(4-Cyano-3-methoxyphenyl)piperazin-1-yl)phenyl)-4-methoxybenzamide]",94,93,–,–
"C#CCOCCOc1ccc(C(=O)Nc2ccc(N3CCN(c4ccccn4)CC3)cc2)cc1 [Example 178, 4-(2-Prop-2-ynoxyethoxy)-N-[4-[4-(2-pyridyl)piperazin-1-yl]phenyl]benzamide]",–,–,97,93
"N#Cc1ccc(N2CCN(c3ccc(NC(=O)c4ccc(O)cc4)cc3)CC2)nc1 [Example 108, N-(4-(4-(5-cyanopyridin-2-yl)piperazin-1-yl)phenyl)-4-hydroxybenzamide]",81,92,–,–
"COc1ccc(C(=O)Nc2ccc(N3CCN(c4ccc(C#N)cc4F)CC3)cc2)cc1 [Example 145, N-(4-(4-(4-Cyano-2-fluorophenyl)piperazin-1-yl)phenyl)-4-methoxybenzamide]",98,97,–,–
"COc1ccc(C(=O)Nc2ccc(N3CCN(c4ccc(C#N)cn4)CC3)cc2)cn1 [Example 171, N-(4-(4-(5-Cyanopyridin-2-yl)piperazin-1-yl)phenyl)-6-methoxynicotinamide]",89,92,–,–
"Cc1ccc(C(=O)Nc2ccc(N3CCN(c4ccccn4)CC3)cc2)c(F)c1 [Example 10, 2-Fluoro-4-methyl-N-(4-(4-(pyridin-2-yl)piperazin-1-yl)phenyl)benzamide]",83,81,–,–
"COc1ccc(C(=O)Nc2ccc(N3CCN(c4ccc(C#N)cn4)CC3)cc2)cc1C [Example 170, N-(4-(4-(5-Cyanopyridin-2-yl)piperazin-1-yl)phenyl)-4-methoxy-3-methylbenzamide]",86,82,–,–
"Cn1cc(C(=O)Nc2ccc(N3CCN(c4ccc(C#N)cc4)CC3)cc2)cn1 [Example 158, N-(4-(4-(4-Cyanophenyl)piperazin-1-yl)phenyl)-1-methyl-1H-pyrazole-4-carboxamide]",83,87,–,–
"N#Cc1ccc(N2CCN(c3ccc(NC(=O)c4ccc(OCF)cc4)cc3)CC2)nc1 [Example 136, N-(4-(4-(5-cyanopyridin-2-yl)piperazin-1-yl)phenyl)-4-(fluoromethoxy) benzamide]",91,92,–,–
"Cc1ccc(C(=O)Nc2cnc(N3CCN(c4ccccn4)CC3)cn2)nc1 [Example 90, 5-Methyl-N-(5-(4-(pyridin-2-yl)piperazin-1-yl)pyrazin-2-yl)picolinamide]",85,74,–,–
"COc1ccc(C(=O)Nc2ccc(N3CCN(c4ccnc(OC)c4)CC3)cc2)cc1 [Example 155, 4-Methoxy-N-(4-(4-(2-methoxypyridin-4-yl)piperazin-1-yl)phenyl)benzamide]",85,97,–,–
"COc1ccc(C(=O)Nc2ccc(N3CCN(c4cccc(C#N)n4)CC3)cc2)cc1 [Example 100, N-[4-[4-(6-Cyano-2-pyridyl)piperazin-1-yl]phenyl]-4-methoxy-benzamide]",86,85,–,–
"Cc1ccc(C(=O)Nc2cnc(N3CCN(c4ccccn4)CC3)nc2)nc1 [Example 75, 5-Methyl-N-(2-(4-(pyridin-2-yl)piperazin-1-yl)pyrimidin-5-yl)picolinamide]",95,95,–,–
"COc1ccc(C(=O)Nc2ccc(N3CCN(c4cc(Cl)ccn4)CC3)cc2)cc1 [Example 149, N-(4-(4-(4-Chloropyridin-2-yl)piperazin-1-yl)phenyl)-4-methoxybenzamide]",93,91,–,–
